“And” between values parts separate entries of the source, which are not always exact repeats. Identical values can stand only once. Toxic doses and inconclusive results are not listed.
System: P388 leukemia ip, CD2F1 mice, survival T/C
Assay: NCI In Vivo Anticancer Drug Screen. Data for tumor model P388 Leukemia (intraperitoneal) in CD2F1 (CDF1) mice
Conditions: endpoint: median survival time, higher = longer survival
How it was run: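 Mice carrying the transplanted tumor received test compound or vehicle. Survival was recorded in each group, and the value is the treated-group measurement divided by that of the vehicle-treated control group.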

[1] = dose: 60.0 mg/kg/injection, schedule: Q01DX005 (ip), vehicle: saline with Tween-80
[2] = dose: 120.0 mg/kg/injection, schedule: Q01DX005 (ip), vehicle: saline with Tween-80
[3] = dose: 240.0 mg/kg/injection, schedule: Q01DX005 (ip), vehicle: saline with Tween-80
[4] = dose: 12.5 mg/kg/injection, schedule: Q01DX009 (ip), vehicle: saline
[5] = dose: 25.0 mg/kg/injection, schedule: Q01DX009 (ip), vehicle: saline
[6] = dose: 50.0 mg/kg/injection, schedule: Q01DX009 (ip), vehicle: saline
[7] = dose: 200.0 mg/kg/injection, schedule: Q01DX001 (ip), vehicle: Klucel (hydroxypropylcellulose) (HPC)
[8] = dose: 60.0 mg/kg/injection, schedule: Q01DX005 (ip), vehicle: Klucel (hydroxypropylcellulose) (HPC)
[9] = dose: 12.5 mg/kg/injection, schedule: Q01DX009 (ip), vehicle: saline with Tween-80
[10] = dose: 25.0 mg/kg/injection, schedule: Q01DX009 (ip), vehicle: saline with Tween-80
[11] = dose: 50.0 mg/kg/injection, schedule: Q01DX009 (ip), vehicle: saline with Tween-80
[12] = dose: 100.0 mg/kg/injection, schedule: Q04DX003 (ip), vehicle: saline with Tween-80
[13] = dose: 60.0 mg/kg/injection, schedule: Q01DX005 (ip), vehicle: saline
[14] = dose: 120.0 mg/kg/injection, schedule: Q01DX005 (ip), vehicle: saline
[15] = dose: 50.0 mg/kg/injection, schedule: Q01DX005 (ip), vehicle: Klucel (hydroxypropylcellulose) (HPC)
[16] = dose: 100.0 mg/kg/injection, schedule: Q01DX005 (ip), vehicle: Klucel (hydroxypropylcellulose) (HPC)
[17] = dose: 200.0 mg/kg/injection, schedule: Q01DX005 (ip), vehicle: Klucel (hydroxypropylcellulose) (HPC)
[18] = dose: 50.0 mg/kg/injection, schedule: Q04DX003 (ip), vehicle: saline with Tween-80
[19] = dose: 6.25 mg/kg/injection, schedule: Q01DX009 (ip), vehicle: saline

Compound: Fc1cccc(F)c1C(Nc1nncs1)Nc1nncs1
- T/C [1]: 108 % of control
- T/C [2]: 109 % of control
- T/C [3]: 160 % of control

Compound: CC(C)(C(=O)O)c1csc(-c2ccc(Cl)cc2)n1
- T/C (dose: 50.0 mg/kg/injection, schedule: Q01DX005 (ip), vehicle: saline with Tween-80): 98 % of control
- T/C (dose: 100.0 mg/kg/injection, schedule: Q01DX005 (ip), vehicle: saline with Tween-80): 102 % of control
- T/C (dose: 200.0 mg/kg/injection, schedule: Q01DX005 (ip), vehicle: saline with Tween-80): 93 % of control

Compound: CC(C)N=C(Cc1ccccc1)NC(C)(C)C
- T/C [4]: 111 % of control
- T/C [5]: 101 % of control
- T/C [6]: 98 % of control

Compound: [Cl][Pd]([Cl])([Cl])[Cl]
- T/C [4]: 86 % of control
- T/C [5]: 96 % of control
- T/C [6]: 95 % of control

Compound: COc1c2ccccc2c(C)c2ccc3ccccc3c12
- T/C (dose: 100.0 mg/kg/injection, schedule: Q01DX001 (ip), vehicle: Klucel (hydroxypropylcellulose) (HPC)): 107 % of control
- T/C [7]: 111 % of control

Compound: c1cc2c(cc1CN1CCOCC1)Sc1cc(CN3CCOCC3)ccc1N2
- T/C [8]: 96 % of control
- T/C (dose: 120.0 mg/kg/injection, schedule: Q01DX005 (ip), vehicle: Klucel (hydroxypropylcellulose) (HPC)): 89 % of control
- T/C (dose: 240.0 mg/kg/injection, schedule: Q01DX005 (ip), vehicle: Klucel (hydroxypropylcellulose) (HPC)): 92 % of control

Compound: CCNC(=O)Nc1nc2ccccc2[nH]1
- T/C [9]: 103 % of control
- T/C [10]: 100 % of control
- T/C [11]: 107 % of control

Compound: COC(=O)C(=O)c1c(C(=O)OC)nc2[nH]n(-c3ccccc3)c(=O)c2c1-c1cccc2ccccc12
- T/C (dose: 30.0 mg/kg/injection, schedule: Q01DX005 (ip), vehicle: saline with Tween-80): 100 % of control and 110 % of control
- T/C [1]: 98 % of control and 100 % of control
- T/C [2]: 91 % of control and 94 % of control

Compound: O=C(Nc1ccc(C(=O)O)cc1)Oc1ccc(N(CCCl)CCCl)cc1
- T/C [10]: 209 % of control
- T/C [11]: 159 % of control
- T/C (dose: 66.0 mg/kg/injection, schedule: Q04DX003 (ip), vehicle: saline with Tween-80): 200 % of control
- T/C [12]: 181 % of control and 200 % of control

Compound: CC(C)c1nccn1Cc1ccccc1
- T/C (dose: 15.0 mg/kg/injection, schedule: Q01DX005 (ip), vehicle: saline): 101 % of control
- T/C (dose: 30.0 mg/kg/injection, schedule: Q01DX005 (ip), vehicle: saline): 99 % of control
- T/C [13]: 101 % of control and 90 % of control

Compound: FC(F)(F)SN1CN(SC(F)(F)F)CN(SC(F)(F)F)CN(SC(F)(F)F)C1
- T/C [13]: 103 % of control and 96 % of control
- T/C [14]: 96 % of control
- T/C (dose: 240.0 mg/kg/injection, schedule: Q01DX005 (ip), vehicle: saline): 100 % of control

Compound: C=CCN(CCNc1cccc2ccccc12)C1CCCCC1
- T/C [15]: 92 % of control
- T/C [16]: 100 % of control
- T/C [17]: 104 % of control

Compound: CCOC(=O)N1c2ccccc2N(C(=O)OCC)C1C#N
- T/C [1]: 97 % of control
- T/C [2]: 96 % of control
- T/C [3]: 87 % of control

Compound: O=C1SC2(CCCCC2)SC1=O
- T/C [18]: 109 % of control
- T/C [12]: 104 % of control
- T/C (dose: 200.0 mg/kg/injection, schedule: Q04DX003 (ip), vehicle: saline with Tween-80): 104 % of control

Compound: COc1ccc(SSc2ccc(OC)n[n+]2[O-])[n+]([O-])n1
- T/C (dose: 10.0 mg/kg/injection, schedule: Q01DX001 (ip), vehicle: Klucel (hydroxypropylcellulose) (HPC)): 103 % of control
- T/C [7]: 111 % of control

Compound: COc1cc2c[n+]3c4c(cccc4c2cc1OC)CCC3
- T/C (dose: 12.5 mg/kg/injection, schedule: Q01DX009 (ip), vehicle: water): 109 % of control
- T/C (dose: 25.0 mg/kg/injection, schedule: Q01DX009 (ip), vehicle: water): 108 % of control
- T/C (dose: 50.0 mg/kg/injection, schedule: Q01DX009 (ip), vehicle: water): 110 % of control

Compound: C#CC1OCCCO1
- T/C [13]: 100 % of control
- T/C [14]: 106 % of control

Compound: [O-]c1on[n+](-c2ccccc2-n2cccn2)c1-c1ccccc1
- T/C (dose: 100.0 mg/kg/injection, schedule: Q01DX001 (ip), vehicle: saline with Tween-80): 90 % of control
- T/C (dose: 200.0 mg/kg/injection, schedule: Q01DX001 (ip), vehicle: saline with Tween-80): 91 % of control
- T/C (dose: 400.0 mg/kg/injection, schedule: Q01DX001 (ip), vehicle: saline with Tween-80): 90 % of control

Compound: O=C(Oc1ccccc1)c1cc2ccccc2cc1O
- T/C [19]: 100 % of control
- T/C [4]: 103 % of control
- T/C [5]: 100 % of control

Compound: CC1(C)CC(N2CCOCC2)=CC(=S)N1
- T/C [15]: 100 % of control
- T/C [16]: 103 % of control
- T/C [17]: 98 % of control

Compound: Cc1cc(OCCCC[N+](C)(C)Cc2ccc(Br)o2)c(C(C)C)cc1Cl
- T/C (dose: 1.56 mg/kg/injection, schedule: Q01DX009 (ip), vehicle: saline): 91 % of control
- T/C (dose: 3.13 mg/kg/injection, schedule: Q01DX009 (ip), vehicle: saline): 100 % of control
- T/C [19]: 103 % of control and 105 % of control

Compound: Cn1c2ccccc2c(=O)c2ccc(Cl)cc21
- T/C (dose: 25.0 mg/kg/injection, schedule: Q01DX009 (ip), vehicle: Klucel (hydroxypropylcellulose) (HPC)): 117 % of control
- T/C (dose: 50.0 mg/kg/injection, schedule: Q01DX009 (ip), vehicle: Klucel (hydroxypropylcellulose) (HPC)): 111 % of control
- T/C (dose: 100.0 mg/kg/injection, schedule: Q01DX009 (ip), vehicle: Klucel (hydroxypropylcellulose) (HPC)): 114 % of control
- T/C (dose: 200.0 mg/kg/injection, schedule: Q01DX009 (ip), vehicle: Klucel (hydroxypropylcellulose) (HPC)): 88 % of control
- T/C (dose: 400.0 mg/kg/injection, schedule: Q01DX009 (ip), vehicle: Klucel (hydroxypropylcellulose) (HPC)): 104 % of control

Compound: O=C1CCCCC1C(=O)C(F)(F)F (stereo not given)
- T/C (dose: 50.0 mg/kg/injection, schedule: Q01DX009 (ip), vehicle: saline + Tween-80 + alcohol): 116 % of control
- T/C (dose: 100.0 mg/kg/injection, schedule: Q01DX009 (ip), vehicle: saline + Tween-80 + alcohol): 106 % of control

Compound: CCCCCCCCSC1=CC(=O)C(OC)=C(OC)C1=O
- T/C (dose: 4.0 mg/kg/injection, schedule: Q01DX009 (ip), vehicle: Klucel (hydroxypropylcellulose) (HPC)): 92 % of control
- T/C (dose: 8.0 mg/kg/injection, schedule: Q01DX009 (ip), vehicle: Klucel (hydroxypropylcellulose) (HPC)): 95 % of control

Compound: Nc1ccc(-c2cc3ccc(C4=NCCN4)cc3[nH]2)cc1
- T/C [8]: 117 % of control

Compound: Nc1nc(N)nc(NCCSSCCNc2nc(N)nc(N)n2)n1
- T/C (dose: 12.5 mg/kg/injection, schedule: Q01DX009 (ip), vehicle: other): 97 % of control
- T/C (dose: 25.0 mg/kg/injection, schedule: Q01DX009 (ip), vehicle: other): 102 % of control
- T/C (dose: 50.0 mg/kg/injection, schedule: Q01DX009 (ip), vehicle: other): 104 % of control and 86 % of control

Compound: N#CNc1nnnn1-c1ccccc1 (tested in a mixture with another compound)
- T/C (dose: 100.0 mg/kg/injection, schedule: Q04DX003 (ip), vehicle: Klucel (hydroxypropylcellulose) (HPC)): 96 % of control
- T/C (dose: 200.0 mg/kg/injection, schedule: Q04DX003 (ip), vehicle: Klucel (hydroxypropylcellulose) (HPC)): 92 % of control
- T/C (dose: 400.0 mg/kg/injection, schedule: Q04DX003 (ip), vehicle: Klucel (hydroxypropylcellulose) (HPC)): 98 % of control

Compound: O=C(O)c1cc(O)cc(C(=O)O)c1
- T/C [10]: 99 % of control
- T/C [11]: 99 % of control
- T/C (dose: 100.0 mg/kg/injection, schedule: Q01DX009 (ip), vehicle: saline with Tween-80): 94 % of control

Compound: CCCCNC(=S)NC(=O)c1ccccc1
- T/C [10]: 95 % of control
- T/C [11]: 94 % of control

Compound: Nc1ccc(S(=O)(=O)n2c(=O)oc3cc(Cl)ccc32)cc1
- T/C (dose: 12.5 mg/kg/injection, schedule: Q01DX005 (ip), vehicle: Klucel (hydroxypropylcellulose) (HPC)): 100 % of control
- T/C (dose: 25.0 mg/kg/injection, schedule: Q01DX005 (ip), vehicle: Klucel (hydroxypropylcellulose) (HPC)): 93 % of control
- T/C [15]: 102 % of control and 91 % of control

Compound: Cc1cnc(Cl)nc1Sc1nc(N)nc2nc[nH]c12
- T/C (dose: 4.0 mg/kg/injection, schedule: Q01DX009 (ip), vehicle: saline with Tween-80): 150 % of control
- T/C [9]: 122 % of control
- T/C (dose: 25.0 mg/kg/injection, schedule: Q04DX003 (ip), vehicle: saline with Tween-80): 154 % of control
- T/C [18]: 159 % of control
- T/C [12]: 100 % of control
